Test results published in PubChem BioAssay (NCI).
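Cells were grown in 96-well plates and exposed to each compound for 48 hours at five concentrations; endpoints were interpolated linearly between bracketing concentrations, or set to the highest concentration if not reached. At the TGI there is no net growth.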

How the values were obtained:
Assay in all cases: growth of human tumour cells (NCI), 48 h
[1] = test system: SF-295 CNS
[2] = test system: HT29 colon
[3] = test system: K-562 leukemia
[4] = test system: SK-MEL-28 melanoma
[5] = test system: U251 CNS
[6] = test system: SF-268 CNS
[7] = test system: HCT-116 colon
[8] = test system: IGROV1 ovarian
[9] = test system: RXF 393 renal
[10] = test system: HL-60(TB) leukemia
[11] = test system: NCI-H226 lung
[12] = test system: OVCAR-3 ovarian
[13] = test system: HCC-2998 colon
[14] = test system: SK-MEL-5 melanoma
[15] = test system: HCT-15 colon
[16] = test system: CCRF-CEM leukemia
[17] = test system: MOLT-4 leukemia
[18] = test system: COLO 205 colon
[19] = test system: SW-620 colon
[20] = test system: NCI-H522 lung

SMILES | TGI [1] [µM] | TGI [2] [µM] | TGI [3] [µM] | TGI [4] [µM] | TGI [5] [µM] | TGI [6] [µM] | TGI [7] [µM] | TGI [8] [µM] | TGI [9] [µM] | TGI [10] [µM] | TGI [11] [µM] | TGI [12] [µM] | TGI [13] [µM] | TGI [14] [µM] | TGI [15] [µM] | TGI [16] [µM] | TGI [17] [µM] | TGI [18] [µM] | TGI [19] [µM] | TGI [20] [µM]
Nc1nc(Cl)cc(NCCCCCCCCCCCCNc2cc(Cl)nc(N)n2)n1 | 32.7 | > 100 | > 100 | 30 | 20.1 | > 100 | > 100 | > 100 | 44.5 | > 100 | 66.9 | > 100 | > 100 | 3.72 | > 100 | > 100 | > 100 | > 100 | > 100 | –
CC(=O)c1cccc(NC(=O)C(=O)C(C(=O)c2ccccc2F)C2OC(=O)c3ccccc32)c1 (configuration not stated) | > 100 | > 100 | > 100 | > 100 | 53.2 | > 100 | 88.6 | > 100 | 70 | 64.8 | 67.3 | – | 53.9 | > 100 | > 100 | 49.6 | > 100 | 41.9 | > 100 | 56.7
O=C1CCc2cc3c(cc21)CC1(Cc2cc4c(cc2C1)CCCC4)C3 | > 100 | > 100 | > 100 | > 100 | > 100 | > 100 | > 100 | > 100 | > 100 | > 100 | – | > 100 | > 100 | > 100 | > 100 | > 100 | > 100 | > 100 | > 100 | > 100
ClCc1ccc2ccc3ccc(CCl)nc3c2n1 | 5.69 | 6.28 | > 100 | 4 | 3.78 | 55 | 3.44 | 3.48 | 3.17 | 4.43 | 9.91 | 4.81 | 8.59 | 3.13 | 4.69 | 8.64 | 4.02 | 3.15 | 7.79 | 3.44
